Tests used:
[1] = tested on: RCC4/VHL; assay: Lactate production (glycolysis), RCC4/VHL; assay type: cell-based, human; details: 5 μM
Protocol: (§1) All cells were grown in DMEM+10% FCS. ACHN and ACHN shVHL were a kind gift from George V. Thomas (UCLA). HIF overexpressing clones were described previously. Transfection of RNA oligos were performed with DnarmaFECT Reagent 1 (Dharmcon), according to manufacturer's directions. ON-TARGETplus SMART pools against HIF-1β/ARNT were purchased from Dharmacon. Glut1 was detected with anti-GLUT1 antibody from NeoMarkers/LabVision/Fisher. Pyruvate/lactate levels and hexokinase activity were both measured by fluorometric assay (BioVision and Sigma-Aldrich, respectively). ATP levels were measured by bioluminescence assay (ATP Determination Kit from Molecular Probes/Invitrogen). In vitro kinase activities were performed by Millipore KinaseProfiler. Affi-Gel 10 (BioRad) activated affinity media was coupled to analogs to generate immobilized affinity linkers.
As the central mediator of oxygen homeostasis, HIF plays an important role in the cellular adaptation to low oxygen conditions through the regulation of genes involved in metabolism and energy production. Inactivation of VHL results in an increase in the half-life of HIF protein. […] To examine whether this compound alters the rate of glycolysis in VHL-deficient cells, we measured the intracellular production of lactate, which is rapidly converted from pyruvate, the end-product of glycolysis. […]

[2] = tested on: RCC4; assay: 3H-2-deoxyglucose uptake, RCC4; assay type: cell-based, human
Protocol: One hundred thousand cells were plated into 6-well plates. The following day, the cells were treated with vehicle or drug and incubated for the indicated time. Cells were washed twice in phosphate buffered saline and low glucose media was added for 30 minutes. Cells were then incubated with 0.5 microCi of tritiated-2-deoxyglucose and incubated for an hour at 37° C. Cells were washed twice in PBS and then lysed in 0.2 N NaOH and 0.2% SDS. Lysates were transferred to scintillation tubes with scintillation fluid and quantified by scintillation counter.
One hundred thousand cells were plated per well in a six-well plate. The next day, cells were treated with the indicated concentration of drug and incubated for the indicated time. Cells were then washed twice with phosphate-buffered saline, incubated in low-glucose medium for 30 minutes, and ^3H-2-deoxyglucose (0.5 μCi) was added in 1 ml of glucose-free media for an additional hour. Cells were washed twice in PBS and lysed (0.2 N NaOH and 0.2% sodium dodecyl sulfate). Glucose uptake was quantified with a scintillation counter.

[3] = tested on: RCC4; assay: ATP levels (bioluminescence), VHL-deficient cells; assay type: cell-based, human
Protocol: as §1
We next investigated how a decrease in glycolysis could lead to selective necrotic cell death. One possibility is that the reduction in glycolysis lowers the availability of pyruvate, the essential precursor for the generation of acetyl-CoA. […] We therefore examined oxygen consumption as a marker of oxidative phosphorylation and ATP production in treated and untreated cells. […] However, the decrease in glucose uptake in response to treatment with compound 47 in VHL-deficient cells results in a 75% decrease in ATP levels (FIG. 3G). […]

[4] = target: T1, ASK1 (Homo sapiens, UniProt Q99683); assay: In vitro kinase activity (Millipore KinaseProfiler): ASK1; assay type: biochemical; details: no head or unit printed
T1 construct: purchased Millipore (KinaseProfiler service)
T1 sequence (Q99683 whole entry, species assumed): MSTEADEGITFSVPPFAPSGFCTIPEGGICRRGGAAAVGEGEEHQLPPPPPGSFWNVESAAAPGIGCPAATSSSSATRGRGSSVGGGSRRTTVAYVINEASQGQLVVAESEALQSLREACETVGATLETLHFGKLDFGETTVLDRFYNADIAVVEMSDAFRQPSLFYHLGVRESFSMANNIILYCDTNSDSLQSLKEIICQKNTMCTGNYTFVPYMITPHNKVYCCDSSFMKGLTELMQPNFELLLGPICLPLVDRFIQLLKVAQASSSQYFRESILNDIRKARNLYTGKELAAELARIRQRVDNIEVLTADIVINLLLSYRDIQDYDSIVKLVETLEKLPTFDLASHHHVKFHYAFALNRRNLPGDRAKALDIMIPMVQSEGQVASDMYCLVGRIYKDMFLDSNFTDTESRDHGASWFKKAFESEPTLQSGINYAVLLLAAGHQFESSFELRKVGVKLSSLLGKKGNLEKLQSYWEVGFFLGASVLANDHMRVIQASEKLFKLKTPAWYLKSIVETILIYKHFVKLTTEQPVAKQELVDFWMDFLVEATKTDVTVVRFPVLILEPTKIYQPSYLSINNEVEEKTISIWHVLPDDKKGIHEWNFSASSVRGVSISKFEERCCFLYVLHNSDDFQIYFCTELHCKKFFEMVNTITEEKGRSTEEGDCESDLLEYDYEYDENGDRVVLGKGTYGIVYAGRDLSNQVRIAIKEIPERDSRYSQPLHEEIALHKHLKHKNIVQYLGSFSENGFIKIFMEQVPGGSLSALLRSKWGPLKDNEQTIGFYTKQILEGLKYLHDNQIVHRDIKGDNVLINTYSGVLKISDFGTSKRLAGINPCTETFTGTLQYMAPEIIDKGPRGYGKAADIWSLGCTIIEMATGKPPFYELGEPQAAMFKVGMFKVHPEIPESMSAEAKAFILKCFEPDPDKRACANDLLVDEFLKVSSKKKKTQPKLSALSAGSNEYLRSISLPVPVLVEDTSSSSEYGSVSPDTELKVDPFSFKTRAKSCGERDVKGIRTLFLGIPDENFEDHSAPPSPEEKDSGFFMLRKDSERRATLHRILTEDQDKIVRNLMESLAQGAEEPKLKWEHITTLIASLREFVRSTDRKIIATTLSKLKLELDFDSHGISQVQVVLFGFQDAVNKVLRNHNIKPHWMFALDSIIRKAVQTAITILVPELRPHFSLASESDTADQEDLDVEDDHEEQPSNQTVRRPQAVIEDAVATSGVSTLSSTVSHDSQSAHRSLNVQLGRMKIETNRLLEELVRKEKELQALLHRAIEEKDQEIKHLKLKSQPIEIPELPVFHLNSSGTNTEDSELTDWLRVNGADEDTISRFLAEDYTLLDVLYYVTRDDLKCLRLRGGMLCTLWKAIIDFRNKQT
Protocol: as §1
(§2) We next wanted to investigate the differential glucose uptake between RCCs with and without VHL treated with compound 47 that subsequently lead to the selective death of VHL-deficient cells. We first examined the message levels of the two main glucose transporters, GLUT1 and GLUT2 by quantitative real-time PCR. GLUT1 is an inducible, high-affinity glucose transporter, while GLUT2 is the glucose transporter responsible for basal glucose uptake. […] Cells deficient in VHL had very low levels of GLUT2 that could barely be detected (FIG. 3J). […]

[5] = target: T2, Aurora-A (Homo sapiens, UniProt O14965); assay: In vitro kinase activity (Millipore KinaseProfiler): Aurora-A; assay type: biochemical; details: no head or unit printed
T2 construct: purchased Millipore (KinaseProfiler service)
Protocol: as §1, §2

[6] = target: T3, CaMKI (Homo sapiens, UniProt Q14012); assay: In vitro kinase activity (Millipore KinaseProfiler): CaMKI; assay type: biochemical; details: no head or unit printed
T3 construct: purchased Millipore (KinaseProfiler service)
T3 sequence (Q14012 whole entry): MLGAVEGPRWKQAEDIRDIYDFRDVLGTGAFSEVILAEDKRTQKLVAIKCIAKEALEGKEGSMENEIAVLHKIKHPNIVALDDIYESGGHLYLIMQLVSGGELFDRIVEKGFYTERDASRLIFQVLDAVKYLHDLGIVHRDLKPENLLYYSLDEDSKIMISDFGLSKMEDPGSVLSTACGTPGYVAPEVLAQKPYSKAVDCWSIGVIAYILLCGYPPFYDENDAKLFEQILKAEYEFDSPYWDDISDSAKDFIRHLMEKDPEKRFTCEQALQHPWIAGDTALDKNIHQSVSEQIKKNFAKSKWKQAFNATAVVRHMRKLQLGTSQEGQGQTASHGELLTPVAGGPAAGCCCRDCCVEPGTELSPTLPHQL
Protocol: as §1, §2

[7] = target: T4, cSRC (Homo sapiens, UniProt P12931); assay: In vitro kinase activity (Millipore KinaseProfiler): cSRC; assay type: biochemical; details: no head or unit printed
T4 construct: purchased Millipore (KinaseProfiler service)
T4 sequence (P12931 whole entry, species assumed): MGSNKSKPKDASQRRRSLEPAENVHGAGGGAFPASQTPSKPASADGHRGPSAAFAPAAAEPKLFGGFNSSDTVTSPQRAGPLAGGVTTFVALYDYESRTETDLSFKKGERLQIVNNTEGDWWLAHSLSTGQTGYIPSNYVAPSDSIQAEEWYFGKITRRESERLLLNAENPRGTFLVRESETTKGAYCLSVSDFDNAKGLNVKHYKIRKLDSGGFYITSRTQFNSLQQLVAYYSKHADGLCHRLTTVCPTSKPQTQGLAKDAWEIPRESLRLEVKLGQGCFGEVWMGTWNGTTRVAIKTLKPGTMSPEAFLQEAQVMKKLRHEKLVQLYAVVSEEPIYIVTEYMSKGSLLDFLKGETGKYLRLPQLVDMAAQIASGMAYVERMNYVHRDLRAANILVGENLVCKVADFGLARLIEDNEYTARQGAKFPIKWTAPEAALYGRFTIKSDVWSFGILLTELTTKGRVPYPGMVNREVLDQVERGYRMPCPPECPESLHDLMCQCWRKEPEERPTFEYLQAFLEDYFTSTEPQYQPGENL
Protocol: as §1, §2

[8] = target: T5, Flt3 (Homo sapiens, UniProt P36888); assay: In vitro kinase activity (Millipore KinaseProfiler): Flt3; assay type: biochemical; details: no head or unit printed
T5 construct: purchased Millipore (KinaseProfiler service)
T5 sequence (P36888 27-993, species assumed): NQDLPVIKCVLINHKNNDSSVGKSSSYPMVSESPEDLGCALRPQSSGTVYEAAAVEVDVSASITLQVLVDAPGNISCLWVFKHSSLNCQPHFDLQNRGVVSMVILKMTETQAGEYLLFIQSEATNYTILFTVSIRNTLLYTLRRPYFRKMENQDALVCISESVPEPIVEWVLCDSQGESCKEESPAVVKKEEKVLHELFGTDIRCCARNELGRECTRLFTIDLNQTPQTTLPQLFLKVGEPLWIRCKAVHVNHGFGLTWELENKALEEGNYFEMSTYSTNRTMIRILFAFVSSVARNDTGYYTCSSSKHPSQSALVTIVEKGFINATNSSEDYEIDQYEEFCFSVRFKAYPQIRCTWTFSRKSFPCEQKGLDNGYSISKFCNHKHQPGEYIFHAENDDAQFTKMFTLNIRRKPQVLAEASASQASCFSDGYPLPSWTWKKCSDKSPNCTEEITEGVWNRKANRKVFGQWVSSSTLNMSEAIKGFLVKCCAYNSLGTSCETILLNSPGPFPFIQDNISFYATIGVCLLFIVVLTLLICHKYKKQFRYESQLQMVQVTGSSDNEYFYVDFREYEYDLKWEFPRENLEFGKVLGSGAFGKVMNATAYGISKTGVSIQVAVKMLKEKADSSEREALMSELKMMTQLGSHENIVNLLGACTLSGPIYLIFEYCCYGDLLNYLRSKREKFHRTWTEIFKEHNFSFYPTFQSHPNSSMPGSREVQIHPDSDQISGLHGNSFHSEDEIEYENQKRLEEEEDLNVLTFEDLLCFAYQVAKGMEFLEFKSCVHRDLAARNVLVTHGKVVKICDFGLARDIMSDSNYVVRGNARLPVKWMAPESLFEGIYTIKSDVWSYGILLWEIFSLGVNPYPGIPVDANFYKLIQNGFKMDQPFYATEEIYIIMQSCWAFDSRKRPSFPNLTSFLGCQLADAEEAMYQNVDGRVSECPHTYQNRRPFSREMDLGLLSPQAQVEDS
Protocol: as §1, §2

[9] = target: T6, Hck (Homo sapiens, UniProt P08631); assay: In vitro kinase activity (Millipore KinaseProfiler): Hck; assay type: biochemical; details: no head or unit printed
T6 construct: purchased Millipore (KinaseProfiler service)
T6 sequence (P08631 whole entry, species assumed): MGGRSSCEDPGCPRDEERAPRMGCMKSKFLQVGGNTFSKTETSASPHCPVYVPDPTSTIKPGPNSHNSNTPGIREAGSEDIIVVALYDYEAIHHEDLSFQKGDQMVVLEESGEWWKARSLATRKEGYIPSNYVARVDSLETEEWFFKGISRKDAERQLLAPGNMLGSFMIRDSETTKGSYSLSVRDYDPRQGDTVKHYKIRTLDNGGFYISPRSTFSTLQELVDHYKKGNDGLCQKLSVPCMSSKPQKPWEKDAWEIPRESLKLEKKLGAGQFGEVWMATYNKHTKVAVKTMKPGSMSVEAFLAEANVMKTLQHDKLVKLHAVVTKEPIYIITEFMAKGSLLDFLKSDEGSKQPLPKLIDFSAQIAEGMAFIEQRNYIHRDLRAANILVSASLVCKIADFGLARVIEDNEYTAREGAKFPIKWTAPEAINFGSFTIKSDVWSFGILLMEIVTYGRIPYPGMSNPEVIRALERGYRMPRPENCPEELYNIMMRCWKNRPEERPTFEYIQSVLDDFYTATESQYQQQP
Protocol: as §1, §2

[10] = target: T7, JAK2 (Homo sapiens, UniProt O60674); assay: In vitro kinase activity (Millipore KinaseProfiler): JAK2; assay type: biochemical; details: no head or unit printed
T7 construct: purchased Millipore (KinaseProfiler service)
T7 sequence (O60674 whole entry, species assumed): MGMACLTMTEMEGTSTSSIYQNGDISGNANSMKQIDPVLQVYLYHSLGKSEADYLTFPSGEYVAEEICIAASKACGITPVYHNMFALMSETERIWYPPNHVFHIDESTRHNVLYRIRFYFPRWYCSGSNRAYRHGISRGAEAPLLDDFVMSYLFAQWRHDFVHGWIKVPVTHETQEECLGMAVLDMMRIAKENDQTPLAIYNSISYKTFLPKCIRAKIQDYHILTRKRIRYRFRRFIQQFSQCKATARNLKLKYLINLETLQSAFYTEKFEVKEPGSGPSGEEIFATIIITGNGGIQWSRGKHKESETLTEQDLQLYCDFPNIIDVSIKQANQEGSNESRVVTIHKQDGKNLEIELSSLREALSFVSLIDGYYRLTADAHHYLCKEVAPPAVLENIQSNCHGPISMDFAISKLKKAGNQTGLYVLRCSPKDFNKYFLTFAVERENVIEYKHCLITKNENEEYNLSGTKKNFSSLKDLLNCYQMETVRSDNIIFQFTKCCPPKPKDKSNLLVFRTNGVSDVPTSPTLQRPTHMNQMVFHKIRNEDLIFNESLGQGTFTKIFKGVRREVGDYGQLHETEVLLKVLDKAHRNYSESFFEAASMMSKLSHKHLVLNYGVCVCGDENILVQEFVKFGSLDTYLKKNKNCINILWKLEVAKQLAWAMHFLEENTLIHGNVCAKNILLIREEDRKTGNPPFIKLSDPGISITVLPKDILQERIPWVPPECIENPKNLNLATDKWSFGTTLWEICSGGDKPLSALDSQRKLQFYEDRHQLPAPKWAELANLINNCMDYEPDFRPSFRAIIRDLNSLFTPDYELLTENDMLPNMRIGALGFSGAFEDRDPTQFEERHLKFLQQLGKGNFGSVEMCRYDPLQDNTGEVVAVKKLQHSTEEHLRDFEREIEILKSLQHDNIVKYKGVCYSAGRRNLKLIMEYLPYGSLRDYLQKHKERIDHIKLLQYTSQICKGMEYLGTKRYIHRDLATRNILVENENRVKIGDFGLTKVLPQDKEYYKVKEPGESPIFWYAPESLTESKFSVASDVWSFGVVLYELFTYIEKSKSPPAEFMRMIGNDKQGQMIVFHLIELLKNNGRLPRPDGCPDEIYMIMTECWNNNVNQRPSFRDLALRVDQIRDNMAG
Protocol: as §1, §2

[11] = target: T8, mTOR (Homo sapiens, UniProt P42345); assay: In vitro kinase activity (Millipore KinaseProfiler): mTOR; assay type: biochemical; details: no head or unit printed
T8 construct: purchased Millipore (KinaseProfiler service)
Protocol: as §1, §2

[12] = target: T9, PKA (Homo sapiens, UniProt P17612); assay: In vitro kinase activity (Millipore KinaseProfiler): PKA; assay type: biochemical; details: no head or unit printed
T9 construct: purchased Millipore (KinaseProfiler service)
Protocol: as §1, §2

[13] = target: T10, TrkA (Homo sapiens, UniProt P04629); assay: In vitro kinase activity (Millipore KinaseProfiler): TrkA; assay type: biochemical; details: no head or unit printed
T10 construct: purchased Millipore (KinaseProfiler service)
Protocol: as §1, §2

In the case of `CC(C)(C)c1ccc(S(=O)(=O)NCc2ccc(C(=O)Nc3cccnc3)cc2)cc1` [Example 38, 4-((4-tert-Butylphenylsulfonamido)methyl)-N-(pyridin-3-yl)benzamide], the “effect on glycolysis (lactate) in cells with wild-type VHL” value [1] is reported as “did not affect glycolysis”, the “glucose uptake in VHL-deficient RCC4 cells” value ([2]; 3H-2-deoxyglucose, two days of treatment, 5 μM) is reported as “impaired glucose uptake” and the “concentration dependence of glucose uptake inhibition in RCC4” value ([2]; increasing concentrations, FIG. 3C) is reported as “dose-dependent manner”. The “decrease in ATP levels in VHL-deficient cells” value ([3]; 5 μM, FIG. 3G) was 75%, the “concentration dependence of inhibition of ATP production” value ([3]; FIG. 3H) was “dose-dependent” and the ASK1 kinase activity [4] was 129%. For the same compound, the Aurora-A kinase activity [5] was 108%, the CaMKI kinase activity [6] was 87 and the cSRC kinase activity [7] was 104%. It also gave a Flt3 kinase activity [8] of 111%, a Hck kinase activity [9] of 84% and a JAK2 kinase activity [10] of 113. The mTOR kinase activity [11] was 101, the PKA kinase activity [12] was 96 and the TrkA kinase activity [13] was 124.

Reference: patent US20120225862A1, “HETEROARYL BENZAMIDES, COMPOSITIONS AND METHODS OF USE” (AUCKLAND UNIVSERVICES LIMITED, priority 2009, published 2012)
